# Experimental data reported in ChEMBL document CHEMBL5131386, “Synthesis and biological evaluation of novel schisanhenol derivatives as potential hepatoprotective agents” (Eur J Med Chem, 2022).
# The source made the active and inactive calls. The rule behind the calls is not given here.
# Assays:
# L02 [1] = test: Hepatoprotective activity against concanavalin A induced liver injury in human HL7702 cells assessed as cell survival rate at 5 uM preincubated for 12 hrs followed by concanavalin A stimulation for 12 hrs by MTT assay (reference value: 51.37%); format: functional; conditions: time 24 hrs, read-out: Survival
# L02 [2] = test: Cytotoxicity against human HL7702 cells ssessed as cell survival rate at 5 uM for 12 hrs by MTT assay; format: toxicity, cell-based; conditions: l02, 12 h
# L02 [3] = test: Hepatoprotective activity against concanavalin A induced human HL7702 cell apoptosis assessed as nuclear morphological changes at 5 uM preincubated for 12 hrs followed by concanavalin A stimulation for 12 hrs by Hoechst 33342 staining based fluorescence microscopy; format: functional; conditions: time 24.0 hrs
# L02 [4] = test: Hepatoprotective activity against concanavalin A induced human HL7702 cell apoptosis assessed as decrease in Bax expression level at 5 uM preincubated for 12 hrs followed by concanavalin A stimulation for 12 hrs by Western blot analysis; format: functional, cell-based; conditions: time 24.0 hrs
# L02 [5] = test: Hepatoprotective activity against concanavalin A induced human HL7702 cell apoptosis assessed as decrease in cleaved caspase-3 level at 5 uM preincubated for 12 hrs followed by concanavalin A stimulation for 12 hrs by Western blot analysis; format: functional, cell-based; conditions: time 24.0 hrs
# L02 [6] = test: Hepatoprotective activity against concanavalin A induced human HL7702 cell apoptosis assessed as increase in Bcl-2 expression level at 5 uM preincubated for 12 hrs followed by concanavalin A stimulation for 12 hrs by Western blot analysis; format: functional, cell-based; conditions: time 24.0 hrs
# L02 [7] = test: Hepatoprotective activity against concanavalin A induced livery injury in human HL7702 cells assessed as decrease in STAT3 phosphorylation level at 5 uM preincubated for 12 hrs followed by concanavalin A stimulation for 12 hrs by Western blot analysis; format: functional, cell-based; conditions: time 24.0 hrs
# L02 [8] = test: Hepatoprotective activity against concanavalin A induced livery injury in human HL7702 cells assessed as decrease in JAK2 phosphorylation level at 5 uM preincubated for 12 hrs followed by concanavalin A stimulation for 12 hrs by Western blot analysis; format: functional, cell-based; conditions: time 24.0 hrs
# L02 [9] = test: Hepatoprotective activity against concanavalin A induced livery injury in human HL7702 cells assessed as increase in HO-1 expression level at 5 uM preincubated for 12 hrs followed by concanavalin A stimulation for 12 hrs by Western blot analysis; format: functional, cell-based; conditions: time 24.0 hrs
smiles,measurement,setting,value
COc1c(Cl)c2c(c(OC)c1OC)-c1c(c(Cl)c(OC)c(OC)c1OC(=O)c1cccs1)CC(C)C(C)C2 (stereo unspecified),viability at 5 µM,L02 [1],80.4%
COc1cc2c(c(OC)c1OC)-c1c(c(Cl)c(OC)c(OC)c1OC(=O)c1ccc(C(F)(F)F)cc1)CC(C)C(C)C2 (stereo unspecified),viability at 5 µM,L02 [1],61.8%
COC1=C(OC)C(OC)CC2=C1c1c(c([N+](=O)[O-])c(OC)c(OC)c1OCCCO)CC(C)C(C)C2 (stereo unspecified),viability at 5 µM,L02 [1],73.1%
COc1c(Cl)c2c(c(OC)c1OC)-c1c(c(Cl)c(OC)c(OC)c1OC(=O)c1ccc([N+](=O)[O-])cc1)CC(C)C(C)C2 (stereo unspecified),viability at 5 µM,L02 [1],59.4%
COc1c(Cl)c2c(c(OC)c1OC)-c1c(c(Cl)c(OC)c(OC)c1OC(=O)c1cccnc1)CC(C)C(C)C2 (stereo unspecified),viability at 5 µM,L02 [1],79.4%
COc1cc2c(c(OC)c1OC)-c1c(O)c(OC)c(OC)c(Cl)c1CC(C)C(C)C2 (stereo unspecified),viability at 5 µM,L02 [1],72.5%
COc1c(Cl)c2c(c(OC)c1OC)-c1c(c(Cl)c(OC)c(OC)c1OC(=O)c1ccc(Cl)cc1Cl)CC(C)C(C)C2 (stereo unspecified),viability at 5 µM,L02 [1],68%
COc1cc2c(c(OC)c1OC)-c1c(c([N+](=O)[O-])c(OC)c(OC)c1OC(=O)/C=C/c1ccccc1)CC(C)C(C)C2 (stereo unspecified),viability at 5 µM,L02 [1],97.4%
same,Activity,L02 [2],Non-Toxic
same,Activity,L02 [3],Active
same,Activity,L02 [4],Active
same,Activity,L02 [5],Active
same,Activity,L02 [6],Active
COc1cc2c(c(OC)c1OC)-c1c(O)c(OC)c(OC)c(N)c1CC(C)C(C)C2 (stereo unspecified),viability at 5 µM,L02 [1],97.1%
same,Activity,L02 [2],Non-Toxic
same,Activity,L02 [3],Active
same,Activity,L02 [4],Active
same,Activity,L02 [5],Active
same,Activity,L02 [6],Active
COc1c(Cl)c2c(c(OC)c1OC)-c1c(c(Cl)c(OC)c(OC)c1OCCCO)CC(C)C(C)C2 (stereo unspecified),viability at 5 µM,L02 [1],67.1%
COc1c(Cl)c2c(c(OC)c1OC)-c1c(c(Cl)c(OC)c(OC)c1OC(=O)/C=C/c1ccccc1)CC(C)C(C)C2 (stereo unspecified),viability at 5 µM,L02 [1],89.7%
same,Activity,L02 [2],Non-Toxic
same,Activity,L02 [3],Active
same,Activity,L02 [4],Active
same,Activity,L02 [5],Active
same,Activity,L02 [6],Active
same,Activity,L02 [7],Active
same,Activity,L02 [8],Active
same,Activity,L02 [9],Active
COc1cc2c(c(OC)c1OC)-c1c(O)c(OC)c(OC)c([N+](=O)[O-])c1CC(C)C(C)C2 (stereo unspecified),viability at 5 µM,L02 [1],70.2%
COc1c(Cl)c2c(c(OC)c1OC)-c1c(c(Cl)c(OC)c(OC)c1OC(=O)c1ccc(C(F)(F)F)cc1)CC(C)C(C)C2 (stereo unspecified),viability at 5 µM,L02 [1],65.1%
